For one molecule, MDA results are on record in US10912741B2, “Prevention of liver cancer with safranal-based formulations” (United Arab Emirates University, priority 2019, dated 2021).

This test has as its system Malondialdehyde (MDA). The experiment in a line: MDA level in liver homogenate, DEN/2-AAF hepatocarcinogenesis model. Type of test: in vivo, albino Wistar rats. The conditions noted are these: mean±SEM, 8 rats. The protocol:
The experimental hepatocarcinogenesis model was developed according to a protocol by […] et al. that was adapted for our purposes. To initiate and promote hepatocarcinogenesis, diethylnitrosamine (DEN) and 2-acetylaminofluorene (2-AAF) were used, respectively. For hepatocarcinogenesis initiation in this model, a single DEN dose (200 mg/kg b.wt.) dissolved in saline was injected intraperitoneally. After initiation, all rats underwent one period of 5-days fasting, as mitotic proliferative stimuli. To promote hepatocarcinogenesis, 2-acetylaminofluorene (2-AAF) was introduced in the form of six daily intragastric doses (30 mg/kg in 1% Tween 80); two weeks after DEN treatment. […] at doses of 25 mg/kg by weight (b.wt.) and 50 mg/kg b.wt, was administrated orally to rats. These doses have been reported to suppress chemically-induced oxidative damage in rats. A total of 40 adult male albino Wistar rats were randomly divided into […] (n=8) and were subjected to different treatments. Group 1 (control) was orally administered distilled water (5 ml/kg b.wt.) throughout the experimental duration and were injected with a single dose of saline. Group 2 ([…] only) was subjected to a safranal dose (50 mg/kg b.wt.) through oral administration for the duration of the experimental period. Hepatocarcinogenesis was induced by DEN and promoted by 2-AAF, as reported previously, in group 3 (HCC). […] Glutathione (GSH) content was determined by analyzing liver homogenates, according to the method of Van Dooran et al. The assay depends on measuring yellow 5-thiol-2-nitrobenzoate absorbance at 412 nm. Glutathione-S-transferase (GST) activity was determined using the method of Habig et al. GST catalyzes the conjugation of GSH thiol group with 1-Chloro-2,4-dinitrobenzene (CDNB), which can be measured by determining the increase in absorbance at 340 nm. […] CAT decomposes hydrogen peroxide (H2O2) to oxygen and water; therefore, the activity of CAT was evaluated according to by the exponential decomposition of H2O2 at 240 nm. […] UV-160-Shimadzu recording spectrophotometer was used to record absorbances. […]

For the molecule `CC1=C(C=O)C(C)(C)CC=C1` [Safranal, 2,6,6-trimethylcyclohexa-1,3-diene-1-carbaldehyde], the MDA by setting is: (HCC (DEN/2-AAF) rats + safranal high dose 50 mg/kg b.wt. oral, 12 weeks) 0.63 ± 0.03 nmol/mg protein; (HCC (DEN/2-AAF) rats + safranal low dose 25 mg/kg b.wt. oral, 12 weeks) 0.61 ± 0.02 nmol/mg protein; (safranal alone 50 mg/kg b.wt. oral, no DEN (group 2)) 0.64 ± 0.02 nmol/mg protein.
